How the values were obtained:
[1] = 40° C. for few hours; literature data; cited from earlier work
[2] = Solid-state change of Tiotropium Bromide monohydrate on heating, by DRX; assay type: physicochemical; settings: 40° C. at 50% UR for 72 hours, FIGS. 4 and 4A
Description: FIGS. 4 and 4A show the DRX spectra of a Tiotropium Bromide monohydrate before and after the heating at 40° C. at 50% UR for 72 hours.
In fact, this is an equilibrium that is driven by the relative humidity of the environment. […] See the enclosed DRX spectra of a Tiotropium Bromide monohydrate before and after the above described treatment (FIGS. 4 and 4A).

[3] = Stability of the crystalline form on storage, analyzed by DRX (powder); assay type: physicochemical; settings: particularly polyethylene bag as primary packaging; driven by relative humidity
Text: X-Ray Diffraction spectra were registered by means of diffractometer (Rigaku-D-Max) from a start angle [½ 2-theta] of 5.000 to 60.000. The diffraction diagrams were obtained employing a Cu anode (Kα=1,54060 Å and Kα=1,54439 Å). The HPLC method utilized to check the quality of Tiotropium Bromide in the examined samples is the same as described in the European Pharmacopoeia 7.0.

Row | Compound | Solid state after mild heating [1] | Solid state after heating (DRX) [2] | Crystalline form in the same storage conditions [3]
1 | C[N+]1(C)[C@@H]2C[C@@H](OC(=O)C(O)(c3cccs3)c3cccs3)C[C@H]1[C@@H]1O[C@@H]12 [Tiotropium Bromide monohydrate] | easily transformed | changes into the corresponding anhydrous form | –
2 | C[N+]1(C)[C@@H]2C[C@@H](OC(=O)C(O)(c3cccs3)c3cccs3)C[C@H]1[C@@H]1O[C@@H]12.[Br-] [Tiotropium Bromide, Tiotropium bromide] | – | – | may absorb or lose water, thus changing the crystalline form
